Test results reported in EP2025678A1, “Pyrazolo[3,4-d]pyrimidine compounds and their use as modulators of protein kinase” (Oncalis AG, priority 2007, dated 2009).

Legend:
human EphB4 [1] = target: T1, human EphB4 (Homo sapiens, UniProt P54760); assay: in vitro enzymatic kinase assay EphB4 (ADP Hunter assay kit); assay type: biochemical; conditions: cell-free; ATP 300uM; poly (Glu4-Tyr) 800uM
T1 sequence (P54760 16-987): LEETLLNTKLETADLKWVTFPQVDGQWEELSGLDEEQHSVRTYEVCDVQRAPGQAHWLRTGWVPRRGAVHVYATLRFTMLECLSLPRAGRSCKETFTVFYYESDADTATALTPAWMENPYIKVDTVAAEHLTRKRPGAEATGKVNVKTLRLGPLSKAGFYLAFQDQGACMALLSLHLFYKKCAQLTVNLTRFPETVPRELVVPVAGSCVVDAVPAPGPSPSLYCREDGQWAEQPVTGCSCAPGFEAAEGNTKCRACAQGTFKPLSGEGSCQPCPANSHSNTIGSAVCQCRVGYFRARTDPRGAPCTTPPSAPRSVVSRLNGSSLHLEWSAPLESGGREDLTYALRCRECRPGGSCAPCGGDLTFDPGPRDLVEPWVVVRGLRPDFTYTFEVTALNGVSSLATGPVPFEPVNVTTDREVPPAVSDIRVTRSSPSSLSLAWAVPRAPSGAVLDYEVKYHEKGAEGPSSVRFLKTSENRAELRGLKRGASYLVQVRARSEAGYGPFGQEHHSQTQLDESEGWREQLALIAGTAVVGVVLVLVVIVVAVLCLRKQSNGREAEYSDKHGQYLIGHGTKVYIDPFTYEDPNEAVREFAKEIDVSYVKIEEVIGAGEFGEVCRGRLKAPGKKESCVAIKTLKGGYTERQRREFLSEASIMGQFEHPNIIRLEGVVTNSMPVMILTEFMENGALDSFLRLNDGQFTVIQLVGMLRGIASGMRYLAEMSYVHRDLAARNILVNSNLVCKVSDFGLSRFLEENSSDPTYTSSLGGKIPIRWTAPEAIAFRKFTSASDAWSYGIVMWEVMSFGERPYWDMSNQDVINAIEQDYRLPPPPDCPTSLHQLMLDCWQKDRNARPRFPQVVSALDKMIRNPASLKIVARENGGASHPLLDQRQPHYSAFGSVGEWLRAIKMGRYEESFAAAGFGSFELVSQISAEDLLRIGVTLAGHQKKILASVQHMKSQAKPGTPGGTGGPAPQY
Procedure: EphB4 inhibition activity of compounds was measured in an in vitro enzymatic kinase assay using the ADP Hunter assay kit (DiscoveRx Corp.), which measures accumulation of ADP produced by the kinase enzyme activity. EphB4 kinase (2ug/mL) is preincubated with different concentrations of compounds for 15 minutes at room temperature in kinase buffer (HEPES 15mM, MgCl2 10mM, EDTA 0.5mM, NaCl 20mM, Tween-20 0.02%, pH 7.4). ATP (300uM) is added and the mixture is incubated for 30 minutes at room temperature for enzyme activation. The peptide substrate poly (Glu4-Tyr) 800uM is added and the mixture is incubated for 60 minutes at 30°C. An enzyme- coupled reaction produces a red-shifted fluorescent signal that is directly proportional to the amount of ADP in solution. Fluorescence emission is measured at 590nm with excitation at 535nm.

human EphB4 [2] = target: T1, human EphB4; assay: Cellular autophosphorylation assay EphB4 (ELISA) in CHO-EphB4 cells; assay type: cell-based; parameters: stably transfected with myc-tagged full length human EphB4; expressed in transfected cells; host or cells: CHO (chinese hamster ovary); conditions: ephrinB2/Fc induced autophosphorylation
Procedure: CHO (chinese hamster ovary) cells were stably transfected with myc-tagged full length human EphB4. A cell line expressing EphB4 of which the phosphorylation was inducible with ephrinB2/Fc was identified and called CHO-EphB4. CHO-EphB4 cells were seeded into 96-well plates and cultured overnight in HAM-F12 medium supplemented with 10% fetal calf serum (FCS). Cells were washed once with PBS and different concentrations of compounds in HAM-F12 medium (final concentration of DMSO in the assay was 1%) were added. Cells were incubated at 37°C for 15 minutes. Ligand ephrinB2/Fc (R&D Systems, 1ug/mL final), which had been pre-clustered with anti-IgG Fc antibody (Jackson ImmunoResearch) for 45 minutes at room temperature, was added and cells were further incubated at 37°C for 45 minutes. Cells were lysed in 30uL lysis buffer per well (20mM Tris pH8, 150mM NaCl, 10% glycerol, 1% Triton X-100, 1mM Na3VO4, 1mM EDTA pH8, 1mM EGTA pH8, 1x protease inhibitor cocktail Sigma). ELISA 96-well plates (Nunc, Maxisorp) were coated with 100uL/well anti-c-myc antibody (Sigma) overnight at 4°C, blocked with 300uL/well 5% milk in TBS/0.005% Tween 20 (TBST) for 1 to 3 hours at room temperature, and incubated with 25uL/well cell lysate overnight at 4°C. ELISA plates were washed twice with TBST and incubated with 100uL/well antiphosphotyrosine HRP-coupled antibody (Upstate) diluted 1:1000 in 5% milk in TBST for 1.5 hour at room temperature and developed with 100uL/well BM BluePOD substrate (Roche). Absorbance was measured at 450nm.

c-Met = target: T2, c-Met (Homo sapiens, UniProt P08581); assay: yeast growth assay, specificity profiling, c-Met; assay type: cell-based; conditions: Table Y; legend not given
T2 construct: expressed in transfected cells; host or cells: yeast
Procedure: (§1) The yeast growth assay was performed as described in "Method for the identification and/or validation of receptor tyrosine kinase inhibitors" WO2005/040413, section "Modes for Carrying out the Invention", Experiment 1 and Experiment 2: Yeast cells carrying plasmids with the RTK of interest were grown in glucose containing medium (repressing expression). Cultures were diluted into galactose containing medium, which induces expression of the kinase. Expression of the kinase inhibits growth of the yeast cells, which allows for positive selection of kinase inhibitors restoring growth of cells.

VEGFR-1 = target: T3, VEGFR-1 (Homo sapiens, UniProt P17948); assay: yeast growth assay, specificity profiling, VEGFR-1; assay type: cell-based; conditions: Table Y; legend not given
T3 construct: expressed in transfected cells; host or cells: yeast
Procedure: as §1

VEGFR-2 = target: T4, VEGFR-2 (Homo sapiens, UniProt P35968); assay: yeast growth assay, specificity profiling, VEGFR-2; assay type: cell-based; conditions: Table Y; legend not given
T4 construct: expressed in transfected cells; host or cells: yeast
Procedure: as §1

IGF1R = target: T5, IGF1R (Homo sapiens, UniProt P08069); assay: yeast growth assay, specificity profiling, IGF1R; assay type: cell-based; conditions: Table Y; legend not given
T5 construct: expressed in transfected cells; host or cells: yeast
T5 sequence (P08069 31-1367): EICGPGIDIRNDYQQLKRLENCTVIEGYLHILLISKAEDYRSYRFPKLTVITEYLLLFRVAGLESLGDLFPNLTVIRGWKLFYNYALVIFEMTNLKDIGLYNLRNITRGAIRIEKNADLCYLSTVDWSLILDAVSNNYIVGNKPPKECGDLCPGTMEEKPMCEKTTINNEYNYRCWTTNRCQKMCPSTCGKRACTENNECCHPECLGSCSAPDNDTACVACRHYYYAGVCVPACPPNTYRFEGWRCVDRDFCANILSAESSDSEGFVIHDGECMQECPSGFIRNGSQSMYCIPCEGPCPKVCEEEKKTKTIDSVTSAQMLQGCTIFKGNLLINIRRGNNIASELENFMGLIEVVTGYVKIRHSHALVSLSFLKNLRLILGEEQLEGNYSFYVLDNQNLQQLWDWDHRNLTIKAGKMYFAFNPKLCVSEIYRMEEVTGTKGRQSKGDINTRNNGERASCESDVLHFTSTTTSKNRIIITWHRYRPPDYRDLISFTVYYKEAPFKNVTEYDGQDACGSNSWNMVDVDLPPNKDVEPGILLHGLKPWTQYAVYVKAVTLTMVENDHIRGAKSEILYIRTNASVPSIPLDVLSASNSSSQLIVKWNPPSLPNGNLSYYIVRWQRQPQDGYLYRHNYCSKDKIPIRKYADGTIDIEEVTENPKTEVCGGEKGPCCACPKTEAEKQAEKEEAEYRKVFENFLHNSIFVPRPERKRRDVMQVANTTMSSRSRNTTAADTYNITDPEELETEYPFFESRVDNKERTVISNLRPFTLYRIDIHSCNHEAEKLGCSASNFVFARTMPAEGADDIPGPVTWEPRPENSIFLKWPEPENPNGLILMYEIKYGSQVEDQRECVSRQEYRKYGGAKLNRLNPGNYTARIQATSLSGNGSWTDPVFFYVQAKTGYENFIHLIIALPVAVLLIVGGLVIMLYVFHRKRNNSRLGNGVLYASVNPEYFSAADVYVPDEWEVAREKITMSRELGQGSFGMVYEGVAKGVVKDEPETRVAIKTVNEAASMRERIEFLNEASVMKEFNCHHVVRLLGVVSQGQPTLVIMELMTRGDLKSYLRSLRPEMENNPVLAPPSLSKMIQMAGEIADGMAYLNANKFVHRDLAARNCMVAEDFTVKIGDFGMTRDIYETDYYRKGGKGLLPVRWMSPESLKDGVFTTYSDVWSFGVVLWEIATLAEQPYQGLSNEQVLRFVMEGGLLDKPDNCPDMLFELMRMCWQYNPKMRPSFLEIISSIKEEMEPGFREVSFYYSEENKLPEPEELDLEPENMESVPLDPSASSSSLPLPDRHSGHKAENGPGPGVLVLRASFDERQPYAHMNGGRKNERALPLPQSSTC
Procedure: as §1

InsR = target: T6, InsR (Homo sapiens, UniProt P06213); assay: yeast growth assay, specificity profiling, InsR; assay type: cell-based; conditions: Table Y; legend not given
T6 construct: expressed in transfected cells; host or cells: yeast
T6 sequence (P06213 28-1382): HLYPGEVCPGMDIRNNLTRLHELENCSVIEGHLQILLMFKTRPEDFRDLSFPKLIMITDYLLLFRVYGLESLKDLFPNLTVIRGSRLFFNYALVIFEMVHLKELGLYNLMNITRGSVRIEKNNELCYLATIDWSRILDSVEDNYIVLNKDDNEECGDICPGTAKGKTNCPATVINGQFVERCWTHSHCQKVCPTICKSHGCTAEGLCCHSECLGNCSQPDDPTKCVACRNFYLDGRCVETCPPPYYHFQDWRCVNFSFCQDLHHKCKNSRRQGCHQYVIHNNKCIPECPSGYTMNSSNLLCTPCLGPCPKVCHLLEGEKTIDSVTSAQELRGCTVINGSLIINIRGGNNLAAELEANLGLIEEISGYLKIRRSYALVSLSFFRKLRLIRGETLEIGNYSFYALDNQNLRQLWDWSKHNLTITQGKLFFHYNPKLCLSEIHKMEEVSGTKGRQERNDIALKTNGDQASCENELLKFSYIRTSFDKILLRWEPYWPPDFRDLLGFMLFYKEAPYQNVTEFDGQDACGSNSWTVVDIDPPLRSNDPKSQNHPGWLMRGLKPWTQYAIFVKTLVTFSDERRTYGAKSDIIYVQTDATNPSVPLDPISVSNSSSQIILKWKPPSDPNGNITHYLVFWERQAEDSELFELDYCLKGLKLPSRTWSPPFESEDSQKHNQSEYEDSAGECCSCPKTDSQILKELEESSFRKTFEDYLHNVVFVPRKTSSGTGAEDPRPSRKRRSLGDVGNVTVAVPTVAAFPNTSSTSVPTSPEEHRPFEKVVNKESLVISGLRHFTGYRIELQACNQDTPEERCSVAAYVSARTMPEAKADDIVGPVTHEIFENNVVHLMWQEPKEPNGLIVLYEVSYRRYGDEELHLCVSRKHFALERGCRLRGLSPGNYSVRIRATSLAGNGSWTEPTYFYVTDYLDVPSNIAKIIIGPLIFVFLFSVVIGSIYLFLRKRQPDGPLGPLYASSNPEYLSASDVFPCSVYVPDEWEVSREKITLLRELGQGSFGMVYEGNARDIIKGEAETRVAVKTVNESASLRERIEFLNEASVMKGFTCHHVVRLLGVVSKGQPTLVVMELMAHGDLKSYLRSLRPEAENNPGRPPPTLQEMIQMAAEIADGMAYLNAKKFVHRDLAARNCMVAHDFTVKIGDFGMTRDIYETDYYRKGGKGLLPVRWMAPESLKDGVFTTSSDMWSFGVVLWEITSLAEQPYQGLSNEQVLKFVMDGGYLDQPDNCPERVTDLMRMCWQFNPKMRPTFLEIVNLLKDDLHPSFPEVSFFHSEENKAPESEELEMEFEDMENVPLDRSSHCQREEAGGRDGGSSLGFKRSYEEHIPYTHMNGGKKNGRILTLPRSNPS
Procedure: as §1

PDGFRb = target: T7, PDGFRb (Homo sapiens, UniProt P09619); assay: yeast growth assay, specificity profiling, PDGFRb; assay type: cell-based; conditions: Table Y; legend not given
T7 construct: expressed in transfected cells; host or cells: yeast
T7 sequence (P09619 33-1106): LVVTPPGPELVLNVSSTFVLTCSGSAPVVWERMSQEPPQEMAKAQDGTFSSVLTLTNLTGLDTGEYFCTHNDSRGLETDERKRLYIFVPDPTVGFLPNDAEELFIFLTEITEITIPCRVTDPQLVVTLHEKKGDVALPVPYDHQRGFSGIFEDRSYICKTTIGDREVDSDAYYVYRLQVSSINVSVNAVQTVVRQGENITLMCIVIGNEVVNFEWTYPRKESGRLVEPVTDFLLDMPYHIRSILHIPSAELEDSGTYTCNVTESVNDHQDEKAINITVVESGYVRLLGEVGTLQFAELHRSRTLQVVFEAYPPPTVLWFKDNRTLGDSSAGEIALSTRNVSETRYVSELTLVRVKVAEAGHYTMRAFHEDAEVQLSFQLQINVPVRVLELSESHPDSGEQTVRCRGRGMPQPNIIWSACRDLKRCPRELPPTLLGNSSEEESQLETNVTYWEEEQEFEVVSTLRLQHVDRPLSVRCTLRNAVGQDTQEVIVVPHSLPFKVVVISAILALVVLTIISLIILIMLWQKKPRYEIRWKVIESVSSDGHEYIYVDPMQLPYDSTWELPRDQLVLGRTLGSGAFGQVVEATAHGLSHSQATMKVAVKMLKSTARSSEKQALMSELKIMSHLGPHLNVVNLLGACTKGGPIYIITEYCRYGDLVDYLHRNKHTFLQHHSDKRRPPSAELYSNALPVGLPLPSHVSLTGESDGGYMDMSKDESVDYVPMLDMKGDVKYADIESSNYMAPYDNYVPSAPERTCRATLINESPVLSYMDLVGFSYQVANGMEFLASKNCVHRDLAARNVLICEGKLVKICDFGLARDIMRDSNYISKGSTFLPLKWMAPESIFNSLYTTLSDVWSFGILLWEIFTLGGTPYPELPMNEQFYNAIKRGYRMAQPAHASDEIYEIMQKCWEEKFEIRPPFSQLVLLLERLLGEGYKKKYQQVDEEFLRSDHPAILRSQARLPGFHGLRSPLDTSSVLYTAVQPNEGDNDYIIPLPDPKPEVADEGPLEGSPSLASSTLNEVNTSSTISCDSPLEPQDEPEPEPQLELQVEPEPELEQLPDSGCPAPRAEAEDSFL
Procedure: as §1

EGFR = target: T8, EGFR (Homo sapiens, UniProt P00533); assay: yeast growth assay, specificity profiling, EGFR; assay type: cell-based; conditions: Table Y; legend not given
T8 construct: expressed in transfected cells; host or cells: yeast
Procedure: as §1

ErbB2 = target: T9, ErbB2 (Homo sapiens, UniProt P04626); assay: yeast growth assay, specificity profiling, ErbB2; assay type: cell-based; conditions: Table Y; legend not given
T9 construct: expressed in transfected cells; host or cells: yeast
T9 sequence (P04626 23-1255): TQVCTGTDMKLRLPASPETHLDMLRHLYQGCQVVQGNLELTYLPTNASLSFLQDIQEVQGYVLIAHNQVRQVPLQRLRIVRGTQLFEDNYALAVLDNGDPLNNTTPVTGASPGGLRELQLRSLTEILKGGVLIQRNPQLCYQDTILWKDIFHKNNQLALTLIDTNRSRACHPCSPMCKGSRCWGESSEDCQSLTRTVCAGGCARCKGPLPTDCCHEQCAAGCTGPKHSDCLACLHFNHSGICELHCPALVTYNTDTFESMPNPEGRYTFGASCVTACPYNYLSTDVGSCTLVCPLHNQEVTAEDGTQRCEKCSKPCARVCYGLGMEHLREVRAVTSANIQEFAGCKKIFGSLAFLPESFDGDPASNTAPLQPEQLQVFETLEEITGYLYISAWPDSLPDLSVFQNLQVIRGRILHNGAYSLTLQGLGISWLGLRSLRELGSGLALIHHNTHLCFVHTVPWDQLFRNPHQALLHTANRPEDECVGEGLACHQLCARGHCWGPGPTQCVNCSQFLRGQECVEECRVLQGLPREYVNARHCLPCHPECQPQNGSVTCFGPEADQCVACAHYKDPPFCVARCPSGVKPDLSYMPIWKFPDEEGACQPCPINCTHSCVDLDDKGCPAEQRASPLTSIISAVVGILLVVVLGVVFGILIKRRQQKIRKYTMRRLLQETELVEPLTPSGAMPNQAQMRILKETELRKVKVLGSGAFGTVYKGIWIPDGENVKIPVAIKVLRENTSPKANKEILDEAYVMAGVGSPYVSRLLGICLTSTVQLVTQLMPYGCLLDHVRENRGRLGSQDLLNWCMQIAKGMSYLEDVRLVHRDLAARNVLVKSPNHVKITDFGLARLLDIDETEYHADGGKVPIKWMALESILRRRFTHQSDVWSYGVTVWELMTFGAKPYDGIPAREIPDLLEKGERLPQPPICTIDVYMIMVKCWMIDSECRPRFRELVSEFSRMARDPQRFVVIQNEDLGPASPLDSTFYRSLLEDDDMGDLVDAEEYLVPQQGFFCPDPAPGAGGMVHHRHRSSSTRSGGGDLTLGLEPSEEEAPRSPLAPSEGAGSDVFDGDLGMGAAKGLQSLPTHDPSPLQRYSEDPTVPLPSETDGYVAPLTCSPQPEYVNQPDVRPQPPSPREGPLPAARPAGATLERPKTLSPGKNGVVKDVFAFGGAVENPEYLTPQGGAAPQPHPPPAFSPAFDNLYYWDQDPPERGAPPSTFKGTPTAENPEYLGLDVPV
Procedure: as §1

IC50 (human EphB4 [1])	Structure (SMILES)	other results
1000 to 10000 nM	Cc1cc(Cl)ccc1Nc1nc(NC2CCCC2)nc2c1cnn2C	IC50 (human EphB4 [2]): 1000 to 10000 nM
< 1000 nM	COCCNc1nc(Nc2ccccc2C)c2cnn(C)c2n1	–
1000 to 10000 nM	CNc1nc(Nc2ccc(Cl)cc2C)c2cnn(C)c2n1 [drawing 56]	IC50 (human EphB4 [2]): > 10000 nM
< 1000 nM	CCNc1nc(Nc2ccccc2C)c2cnn(C)c2n1	IC50 (human EphB4 [2]): < 1000 nM
1000 to 10000 nM	Cc1ccccc1Nc1nc(N(C)C)nc2c1cnn2C	–
1000 to 10000 nM	CCNc1nc(Nc2ccc(C)cc2C)c2cnn(C)c2n1	–
1000 to 10000 nM	Cc1ccccc1Nc1nc(N2CCN(C(=O)c3ccco3)CC2)nc2c1cnn2C	–
1000 to 10000 nM	CNc1nc(Nc2ccc(C)cc2C)c2cnn(C)c2n1	–
< 1000 nM	Cc1ccccc1Nc1nc(NCc2ccco2)nc2c1cnn2C	IC50 (human EphB4 [2]): 1000 to 10000 nM
1000 to 10000 nM	Cc1ccccc1Nc1nc(NCc2ccccc2)nc2c1cnn2C	–
1000 to 10000 nM	Cc1ccccc1Nc1nc(NCc2ccccc2Cl)nc2c1cnn2C	IC50 (human EphB4 [2]): < 1000 nM
1000 to 10000 nM	Cc1ccccc1Nc1nc(Nc2ccc(F)cc2)nc2c1cnn2C	–
1000 to 10000 nM	Cc1ccccc1Nc1nc(N2CCOCC2)nc2c1cnn2C	–
1000 to 10000 nM	CCCNc1nc(Nc2ccc(Cl)cc2C)c2cnn(C)c2n1	–
1000 to 10000 nM	Cc1ccccc1Nc1nc(N2CCCC2)nc2c1cnn2C	–
1000 to 10000 nM	Cc1ccccc1Nc1nc(Nc2ccccc2)nc2c1cnn2C	–
< 1000 nM	CCCNc1nc(Nc2ccccc2C)c2cnn(C)c2n1	–
< 1000 nM	CCN(CC)CCNc1nc(Nc2ccccc2C)c2cnn(C)c2n1	–
< 1000 nM	CCCCNc1nc(Nc2ccccc2C)c2cnn(C)c2n1	IC50 (human EphB4 [2]): < 1000 nM
1000 to 10000 nM	Cc1ccc(Nc2nc(NCc3ccco3)nc3c2cnn3C)c(C)c1	–
< 1000 nM	COCCCNc1nc(Nc2ccccc2C)c2cnn(C)c2n1	–
–	CNc1nc(Nc2ccc(Cl)cc2C)c2cnn(C)c2n1 [[drawing]]	Specificity profiling in the yeast growth assay: c-Met (c-Met): 0; Specificity profiling in the yeast growth assay: VEGFR-1 (VEGFR-1): 0; Specificity profiling in the yeast growth assay: VEGFR-2 (VEGFR-2): 0; Specificity profiling in the yeast growth assay: IGF1R (IGF1R): 0; Specificity profiling in the yeast growth assay: InsR (InsR): 0; Specificity profiling in the yeast growth assay: PDGFRb (PDGFRb): 0; Specificity profiling in the yeast growth assay: EGFR (EGFR): 0; Specificity profiling in the yeast growth assay: ErbB2 (ErbB2): 0
< 1000 nM	C=CCNc1nc(Nc2ccccc2C)c2cnn(C)c2n1	–
< 1000 nM	Cc1ccccc1Nc1nc(NC2CCCC2)nc2c1cnn2C	–
< 1000 nM	CNc1nc(Nc2ccccc2C)c2cnn(C)c2n1	–
